Assay results as given in patent US10238614B2, “Uses of 6-aminohexanoic acid to manage bleeding conditions” (EMORY UNIVERSITY, priority 2013, dated 2019).

How the values were obtained:
[1] = tested on: thrombocytopenic patients with hematological malignancies; assay: Retrospective study of prophylactic oral EACA in outpatients with chronic transfusion-dependent thrombocytopenia; format: in vivo, human
Excerpt: Patients were managed in the outpatient setting despite their severe thrombocytopenia and received EACA as a substitution for prophylactic, threshold directed platelet transfusion.
Patients with chronic transfusion dependent thrombocytopenia who received prophylactic EACA in the outpatient setting were identified through a computerized database search. After initiation of EACA, prophylactic threshold-driven platelet transfusion was discontinued and patients received only therapeutic platelet transfusion in case of bleeding, except when admitted to the inpatient ward. In the inpatient ward, prophylactic platelets were routinely infused when platelets were <10×10^9/L. The number of platelets transfused in the hospital in the absence of bleeding was censored. Patient demographics, diagnosis, treatment, platelet counts, duration of thrombocytopenia, transfusion history, bleeding and outcomes were captured onto study-specific case report forms. Bleeding was captured regardless of patient's location (out-patient or wards) and retrospectively scored based on the ITP WHO classification: grade 1=petechial bleed, grade 2=clinically mild blood loss, grade 3=gross blood loss requiring transfusion, and grade 4=retinal, cerebral, or debilitating blood loss. Statistics were descriptive.
Patients were monitored in the outpatient clinic, with a CBC obtained at least once a week.

[2] = tested on: patients with thrombocytopenic hemorrhage / severely thrombocytopenic patients with hematological malignancies; conditions: cited from earlier work
[3] = ITP WHO bleeding classification grade, median (range)
[4] = severe and refractory thrombocytopenic patients not receiving prophylactic platelet transfusion

patients who discontinued EACA due to the onset of hematuria ([1]; one of 44 patients): 2%
SMILES: NCCCCCC(=O)O [EACA, 6-aminohexanoic acid]
tolerability ([1]; 1 gram orally twice daily, median 47 days): overall well tolerated
patients who discontinued EACA due to platelet recovery ([1]; 18 of 44 patients): 41%
discontinuation due to intolerance ([1]; 44 patients): no patients discontinued EACA due to intolerance
venous thromboembolic event ([1]; 44 patients): No patient experienced a venous thromboembolic event
patients who received platelet transfusions while on EACA ([1]; 44 patients, EACA 1 gram orally twice daily, no prophylactic platelet transfusions, 7/44): 16%
median bleeding score for the 19 minor bleeding events [1, 3]: 1 (1-2)
median score for the 10 bleeding episodes treated with transfusion [1, 3]: 2 (2-4)
patients with minor mucocutaneous bleeding that resolved spontaneously and did not require platelet transfusions ([1]; eleven of 44 patients): 25%
patients with grade 3 bleeding ([1]; hematochezia from a pre-existing rectal ulcer): 1 patient
bleeding episodes treated with platelet transfusions ([1]; in 7/44 patients while on EACA): 10
episodes of minor mucocutaneous bleeding that resolved spontaneously ([1]; in eleven patients, epistaxis, bruises, oral, vaginal): 19 episodes
grade 2 mucocutaneous bleeds requiring transfusion ([1]; in the other 5 patients: hemorrhoid, epistaxis, oral, bladder and vaginal): 8
grade 3-4 bleedings ([1]; in the setting of a trauma and from a pre-existing condition): Two
major spontaneous bleeds ([1]; median platelet counts 8×10^9/L, no prophylactic platelet transfusions, median 47 days, up to 209 days): no major spontaneous bleeds were observed
platelet refractory patients with bleeding episodes ([1]; of the 10 platelet refractory patients, mucocutaneous (3 grade 1, 5 grade 2 and 1 grade 3)): 4
overall safety [1, 4]: safe
risk of major spontaneous bleeding [1, 4]: low risk of major spontaneous bleeding
patient-reported effect on petechiae and subcutaneous bleeds ([1]; shortly after initiation of EACA): rapid disappearance of petechiae and resolution of subcutaneous bleeds
median platelet transfusions in transfused patients ([1]; summary statement, 16% of patients transfused): 4 units
median number of platelets transfusions received to treat bleeding episodes ([1]; the 7 transfused patients, median (range)): 4 (range, 1-8)
patients with grade 4 bleeding ([1]; traumatic intracranial hemorrhage secondary to motor vehicle accident): 1 patient
effect on transfusion requirements ([2]; patients with thrombocytopenic hemorrhage, Kalmadi et al., Cancer 2006): reduces transfusion requirements
effect on bleeding ([2]; severely thrombocytopenic patients with hematological malignancies, Antun et al., Cancer 2013): prevents bleeding
